These are literature values, as cited in patent US11491230B2, “Medication” (priority 2015, dated 2022).

In data set [1] the test system is estrogen receptor-positive and estrogen receptor-negative breast cancer cell lines. The following applies: inducing apoptosis in a concentration-dependent manner.
The test system of data set [2] is nontumorigenic mammary cells.
The test system of another data set is PC-3. The settings on record: PC-3 (Ruiz et al. 1999).
Data set [3] addresses T1, androgen receptor in the prostate gland (Homo sapiens, UniProt P10275).
T1 construct: host or cells: prostate gland
T1 sequence (P10275 1-920): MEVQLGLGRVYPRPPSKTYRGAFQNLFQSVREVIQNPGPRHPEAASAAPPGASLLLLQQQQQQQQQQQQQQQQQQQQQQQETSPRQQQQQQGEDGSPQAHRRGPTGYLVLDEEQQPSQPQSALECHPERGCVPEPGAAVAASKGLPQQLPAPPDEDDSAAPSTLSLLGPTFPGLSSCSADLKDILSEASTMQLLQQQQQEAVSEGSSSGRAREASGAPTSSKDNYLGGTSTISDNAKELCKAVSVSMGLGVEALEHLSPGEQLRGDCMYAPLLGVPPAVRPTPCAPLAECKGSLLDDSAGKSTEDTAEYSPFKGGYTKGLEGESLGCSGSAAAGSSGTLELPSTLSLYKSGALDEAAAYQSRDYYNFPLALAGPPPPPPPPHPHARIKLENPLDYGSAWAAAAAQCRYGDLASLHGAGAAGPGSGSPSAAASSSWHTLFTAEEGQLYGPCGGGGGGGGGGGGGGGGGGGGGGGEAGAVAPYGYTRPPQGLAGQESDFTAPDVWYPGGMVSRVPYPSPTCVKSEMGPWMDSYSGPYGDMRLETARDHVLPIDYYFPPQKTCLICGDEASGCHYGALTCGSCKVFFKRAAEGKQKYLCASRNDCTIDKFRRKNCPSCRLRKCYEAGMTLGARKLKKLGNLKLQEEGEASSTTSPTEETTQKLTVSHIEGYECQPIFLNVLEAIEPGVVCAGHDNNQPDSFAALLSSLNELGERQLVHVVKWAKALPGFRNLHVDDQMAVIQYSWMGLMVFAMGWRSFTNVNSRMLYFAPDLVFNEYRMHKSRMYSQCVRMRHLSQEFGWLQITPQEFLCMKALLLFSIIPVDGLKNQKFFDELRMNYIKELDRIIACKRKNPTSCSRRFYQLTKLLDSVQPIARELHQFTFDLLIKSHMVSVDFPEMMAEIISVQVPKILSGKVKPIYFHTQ

The target of the next data set is CB1 receptor (Homo sapiens, UniProt P21554).
Chain of CB1 receptor (P21554 whole entry): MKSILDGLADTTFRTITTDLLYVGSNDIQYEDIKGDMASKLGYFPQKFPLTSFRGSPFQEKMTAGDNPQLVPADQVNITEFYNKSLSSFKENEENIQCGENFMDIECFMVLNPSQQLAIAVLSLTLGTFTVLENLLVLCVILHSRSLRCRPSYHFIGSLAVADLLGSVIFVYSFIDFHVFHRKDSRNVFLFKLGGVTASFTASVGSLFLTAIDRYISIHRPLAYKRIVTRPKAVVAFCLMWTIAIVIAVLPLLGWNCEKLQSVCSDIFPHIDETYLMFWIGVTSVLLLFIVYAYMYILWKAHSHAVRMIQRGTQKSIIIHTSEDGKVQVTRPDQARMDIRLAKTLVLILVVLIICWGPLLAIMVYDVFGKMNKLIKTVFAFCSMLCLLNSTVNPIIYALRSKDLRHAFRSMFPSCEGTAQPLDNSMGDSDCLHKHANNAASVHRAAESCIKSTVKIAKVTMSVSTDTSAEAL
Test in data set [4]: not given
The source holds these as a separate data set.

As for `C=C(C)[C@@H]1CCC(C)=C[C@H]1c1c(O)cc(CCCCC)cc1O` [CBD, Cannabidiol], in data set [1], the “survival of breast cancer cell lines” value is reported as “inhibited the survival”. Besides, the “affinity to cannabinoid receptors” value with cannabinoid receptors is recorded as “low affinity”. In data set [2], the “effect on nontumorigenic mammary cells” value was “little effect”.
On to `CCCCCc1cc(O)c2c(c1)OC(C)(C)[C@@H]1CCC(C)=C[C@@H]21` [THC, Tetrahydrocannabinol], for which the apoptosis result in the data set on PC-3 was “causes apoptosis”. For the same molecule, the “specific binding of dihydroxytestosterone to the androgen receptor” value in data set [3] was “inhibits specific binding”. The pain sensitivity result (cold-pressor test after administration, dronabinol oral capsules 10 mg or 20 mg) is listed as “decreased pain sensitivity”. For the same molecule, the duration of effect entry (dronabinol versus smoked marijuana) is reported as “lasted longer than smoked marijuana”. In addition, the “time until pain reduction effects were felt after administration” value (on the average) is 180 min.
Regarding `CCCc1cc(O)c2c(c1)OC(C)(C)[C@@H]1CCC(C)=C[C@@H]21` [THCV, Tetrahydrocannabivarin], the “activity at CB1 receptor” value on CB1 receptor was “CB1 receptor antagonist”.
vitamin E: the “reduction in breast cancer incidence” value in data set [4] (pre-menopausal women with a family history of breast cancer, highest quantity of vitamin E consumed) was 43%. In addition, the “breast cancer risk reduction” value in data set [4] (women without a family history of breast cancer) is recorded as 16%.
